Test results from ChEMBL document CHEMBL3988442, “University of Dundee, Small-Polar-MMV Screening Library” (2021).
Where “and” joins values, the source holds several entries; their conditions need not be identical. Equal entries are not always repeated.

Columns and labels:
[1] = molecular target: T1, Aspartate--tRNA(Asp/Asn) ligase (Mycobacterium tuberculosis (strain ATCC 25618 / H37Rv), UniProt P9WFW3); assay: Assay for Asp RNA synthetase-1 from Mycobacterium tuberculosis; assay type: functional
T1 sequence (P9WFW3 whole entry): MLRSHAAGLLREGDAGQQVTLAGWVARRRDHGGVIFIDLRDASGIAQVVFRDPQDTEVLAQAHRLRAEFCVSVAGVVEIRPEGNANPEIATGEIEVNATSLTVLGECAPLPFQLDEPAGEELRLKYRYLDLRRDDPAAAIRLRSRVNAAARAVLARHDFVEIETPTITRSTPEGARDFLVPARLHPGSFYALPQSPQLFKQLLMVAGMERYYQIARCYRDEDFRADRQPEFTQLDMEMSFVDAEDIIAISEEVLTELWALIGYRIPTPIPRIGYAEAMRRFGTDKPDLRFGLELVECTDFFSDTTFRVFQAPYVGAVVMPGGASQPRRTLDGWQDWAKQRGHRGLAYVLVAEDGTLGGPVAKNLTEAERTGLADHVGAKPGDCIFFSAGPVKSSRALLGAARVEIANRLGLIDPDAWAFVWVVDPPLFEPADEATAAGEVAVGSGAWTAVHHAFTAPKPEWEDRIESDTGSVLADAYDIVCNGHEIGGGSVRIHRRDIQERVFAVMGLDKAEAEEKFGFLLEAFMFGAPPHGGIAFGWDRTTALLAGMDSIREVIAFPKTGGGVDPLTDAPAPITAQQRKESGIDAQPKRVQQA

[2] = molecular target: T2, Ubiquitin-activating enzyme e1, putative (Leishmania donovani (strain BPK282A1), UniProt E9BSI1); assay: Leishmania donovani Ubiquitin Activating Enzyme (LdE1); assay type: functional
T2 sequence (E9BSI1 whole entry): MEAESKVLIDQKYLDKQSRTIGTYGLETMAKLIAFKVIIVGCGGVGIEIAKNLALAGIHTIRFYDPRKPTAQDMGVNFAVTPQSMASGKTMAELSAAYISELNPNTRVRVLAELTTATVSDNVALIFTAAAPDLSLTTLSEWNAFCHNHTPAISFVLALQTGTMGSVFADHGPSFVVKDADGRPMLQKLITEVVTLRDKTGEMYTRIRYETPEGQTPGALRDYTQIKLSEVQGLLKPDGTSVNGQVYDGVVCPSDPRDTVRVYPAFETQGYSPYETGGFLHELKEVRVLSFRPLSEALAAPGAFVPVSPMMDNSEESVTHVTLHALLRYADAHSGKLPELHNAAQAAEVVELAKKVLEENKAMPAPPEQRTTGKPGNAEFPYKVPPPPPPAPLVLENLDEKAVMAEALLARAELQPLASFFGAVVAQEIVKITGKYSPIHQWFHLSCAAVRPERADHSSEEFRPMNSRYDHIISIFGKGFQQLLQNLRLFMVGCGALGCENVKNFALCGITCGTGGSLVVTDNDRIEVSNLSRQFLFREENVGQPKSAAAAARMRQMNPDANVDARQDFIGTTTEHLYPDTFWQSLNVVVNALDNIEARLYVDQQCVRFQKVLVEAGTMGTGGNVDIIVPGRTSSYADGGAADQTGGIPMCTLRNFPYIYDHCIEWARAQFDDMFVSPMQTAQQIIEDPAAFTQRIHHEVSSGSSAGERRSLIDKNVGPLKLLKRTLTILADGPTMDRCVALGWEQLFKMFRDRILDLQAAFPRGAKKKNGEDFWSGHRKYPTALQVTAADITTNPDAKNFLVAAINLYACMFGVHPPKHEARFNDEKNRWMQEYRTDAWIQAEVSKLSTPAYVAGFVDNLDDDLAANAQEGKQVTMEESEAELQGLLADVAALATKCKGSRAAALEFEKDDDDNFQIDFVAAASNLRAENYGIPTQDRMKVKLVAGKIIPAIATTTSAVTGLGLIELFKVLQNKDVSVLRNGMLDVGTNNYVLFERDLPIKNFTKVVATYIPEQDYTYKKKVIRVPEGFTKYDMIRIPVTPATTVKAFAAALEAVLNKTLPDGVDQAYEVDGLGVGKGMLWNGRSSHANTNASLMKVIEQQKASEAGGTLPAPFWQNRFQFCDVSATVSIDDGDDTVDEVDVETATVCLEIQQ

Histidine--tRNA ligase [3] = molecular target: T3, Histidine--tRNA ligase (Leishmania infantum, UniProt A4I591); assay: Leishmania infantum Histidine tRNA synthetase (LdHisRS); assay type: functional
T3 sequence (A4I591 whole entry): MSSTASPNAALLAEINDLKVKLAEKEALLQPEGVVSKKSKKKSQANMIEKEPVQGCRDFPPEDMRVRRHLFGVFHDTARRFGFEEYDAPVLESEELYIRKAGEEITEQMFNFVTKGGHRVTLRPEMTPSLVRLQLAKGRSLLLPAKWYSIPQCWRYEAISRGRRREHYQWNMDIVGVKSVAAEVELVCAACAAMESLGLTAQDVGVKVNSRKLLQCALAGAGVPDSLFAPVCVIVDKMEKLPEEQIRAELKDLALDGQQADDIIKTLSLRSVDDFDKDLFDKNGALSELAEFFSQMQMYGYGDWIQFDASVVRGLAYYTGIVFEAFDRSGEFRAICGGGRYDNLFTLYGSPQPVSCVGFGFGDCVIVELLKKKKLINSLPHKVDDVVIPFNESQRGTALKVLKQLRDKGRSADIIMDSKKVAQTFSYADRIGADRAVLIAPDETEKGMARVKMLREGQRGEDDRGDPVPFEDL

Lysine--tRNA ligase = Lysine--tRNA ligase (Plasmodium falciparum (isolate 3D7), UniProt Q8IDJ8); assay: Pf-KRS-1 (Lysyl-RNA Synthetase-1, KRS-1, cytosolic KRS) from Plasmodium falciparum. Inhibitor assay, 384 well plate, luminescence read.; assay type: functional
Sequence of Lysine--tRNA ligase (Q8IDJ8 whole entry): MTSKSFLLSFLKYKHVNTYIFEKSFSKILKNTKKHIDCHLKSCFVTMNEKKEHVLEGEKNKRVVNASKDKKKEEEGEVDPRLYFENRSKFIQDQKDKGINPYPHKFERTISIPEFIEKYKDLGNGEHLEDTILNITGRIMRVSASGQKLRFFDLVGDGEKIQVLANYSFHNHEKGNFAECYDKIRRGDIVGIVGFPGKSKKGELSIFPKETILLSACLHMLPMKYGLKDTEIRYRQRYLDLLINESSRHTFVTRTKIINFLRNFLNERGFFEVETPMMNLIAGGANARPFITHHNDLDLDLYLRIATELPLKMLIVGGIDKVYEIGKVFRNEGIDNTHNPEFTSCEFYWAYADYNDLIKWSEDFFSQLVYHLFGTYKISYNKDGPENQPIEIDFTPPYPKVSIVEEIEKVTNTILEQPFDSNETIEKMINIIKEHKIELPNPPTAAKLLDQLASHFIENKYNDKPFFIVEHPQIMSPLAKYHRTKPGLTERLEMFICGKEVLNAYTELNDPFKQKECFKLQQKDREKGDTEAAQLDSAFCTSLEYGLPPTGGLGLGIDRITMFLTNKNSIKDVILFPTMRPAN

Histidine--tRNA ligase [4] = molecular target: T4, Histidine--tRNA ligase (Trypanosoma cruzi (strain CL Brener), UniProt Q4DA54); assay: Trypanosoma cruzi histidyl tRNA synthetase (Tc-HisRS); assay type: functional
T4 sequence (Q4DA54 whole entry): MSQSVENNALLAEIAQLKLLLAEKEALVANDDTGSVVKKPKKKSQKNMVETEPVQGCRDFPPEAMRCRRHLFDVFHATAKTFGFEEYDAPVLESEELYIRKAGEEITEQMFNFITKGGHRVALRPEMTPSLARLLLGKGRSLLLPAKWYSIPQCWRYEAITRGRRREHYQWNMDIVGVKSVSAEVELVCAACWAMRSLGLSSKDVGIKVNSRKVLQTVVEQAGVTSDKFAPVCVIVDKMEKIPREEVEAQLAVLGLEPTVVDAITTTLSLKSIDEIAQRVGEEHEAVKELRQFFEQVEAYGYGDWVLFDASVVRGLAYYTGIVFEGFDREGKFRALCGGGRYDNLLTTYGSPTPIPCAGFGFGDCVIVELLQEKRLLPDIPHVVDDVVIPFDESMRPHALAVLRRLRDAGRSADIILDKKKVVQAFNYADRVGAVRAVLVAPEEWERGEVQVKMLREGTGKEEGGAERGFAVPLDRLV

[5] = microbe, parasite or virus in culture; conditions: Mycobacterium tuberculosis, 72 h, read-out: pIC50 (converted)
[6] = microbe, parasite or virus in culture; conditions: Mycobacterium tuberculosis, 96 h, read-out: pIC50 (converted)
[7] = molecular target: Protein translocase subunit SecA (Escherichia coli (strain K12), UniProt P10408); assay: Assay to Identify E. coli SecA ATPase Inhibitors; assay type: functional
Sequence of Protein translocase subunit SecA (P10408 whole entry): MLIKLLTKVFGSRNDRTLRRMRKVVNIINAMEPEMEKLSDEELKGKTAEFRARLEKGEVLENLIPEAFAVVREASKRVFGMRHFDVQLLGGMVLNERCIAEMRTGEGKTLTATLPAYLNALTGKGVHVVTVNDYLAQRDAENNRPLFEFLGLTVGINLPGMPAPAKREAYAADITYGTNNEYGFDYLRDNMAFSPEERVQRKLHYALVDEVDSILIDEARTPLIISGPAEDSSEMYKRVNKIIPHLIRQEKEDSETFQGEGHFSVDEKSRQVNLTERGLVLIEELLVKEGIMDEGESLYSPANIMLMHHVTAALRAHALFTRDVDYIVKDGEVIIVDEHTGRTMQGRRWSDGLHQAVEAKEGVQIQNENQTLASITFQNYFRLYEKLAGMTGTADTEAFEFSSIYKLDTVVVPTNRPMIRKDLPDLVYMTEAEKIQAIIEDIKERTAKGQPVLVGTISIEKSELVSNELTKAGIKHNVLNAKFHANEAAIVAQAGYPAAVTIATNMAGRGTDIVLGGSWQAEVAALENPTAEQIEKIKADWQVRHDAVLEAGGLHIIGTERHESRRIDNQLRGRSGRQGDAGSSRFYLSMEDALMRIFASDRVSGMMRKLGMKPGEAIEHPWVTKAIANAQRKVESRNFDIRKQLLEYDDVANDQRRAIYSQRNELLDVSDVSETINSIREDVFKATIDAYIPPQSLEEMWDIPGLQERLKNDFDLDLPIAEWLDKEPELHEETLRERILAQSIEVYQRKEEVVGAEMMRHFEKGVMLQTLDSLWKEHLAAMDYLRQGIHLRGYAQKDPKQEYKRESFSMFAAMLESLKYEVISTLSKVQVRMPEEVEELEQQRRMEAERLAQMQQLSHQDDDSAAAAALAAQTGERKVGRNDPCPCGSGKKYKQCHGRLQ

[8] = To identify inhibition of the IFN signalling (Jak-Stat) pathway via expression of an eGFP reporter gene under the control of an IFN-stimulated response element (ISRE) containing MxA promoter.; assay type: functional, Homo sapiens
[9] = molecular target: T5, Coenzyme A biosynthesis bifunctional protein CoaBC (Mycobacterium tuberculosis (strain ATCC 25618 / H37Rv), UniProt P9WNZ1); assay: Biomol Green assay for MtCoaBC inhibitor, OD650 read; assay type: functional
T5 sequence (P9WNZ1 whole entry): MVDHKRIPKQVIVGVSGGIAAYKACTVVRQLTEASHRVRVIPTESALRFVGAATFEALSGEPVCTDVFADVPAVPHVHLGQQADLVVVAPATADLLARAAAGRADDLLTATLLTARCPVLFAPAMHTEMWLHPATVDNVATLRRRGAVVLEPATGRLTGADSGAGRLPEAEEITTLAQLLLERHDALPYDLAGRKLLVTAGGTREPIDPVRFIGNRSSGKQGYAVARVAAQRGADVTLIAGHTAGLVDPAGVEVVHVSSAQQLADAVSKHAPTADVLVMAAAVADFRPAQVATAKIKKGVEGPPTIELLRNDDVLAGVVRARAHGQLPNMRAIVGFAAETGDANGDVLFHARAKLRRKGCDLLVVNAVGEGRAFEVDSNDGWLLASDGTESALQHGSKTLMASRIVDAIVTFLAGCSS

| SMILES | IC50 [1] | IC50 [2] | IC50 (Histidine--tRNA ligase [3]) | IC50 (Lysine--tRNA ligase) [µM] | IC50 (Histidine--tRNA ligase [4]) | IC50 [5] [µM] | IC50 [6] [µM] | IC50 [7] | pIC50 [8] | IC50 [9] [µM] |
| --- | --- | --- | --- | --- | --- | --- | --- | --- | --- | --- |
| Cn1cc(NC(=O)N2CCC(c3ccccc3)CC2)ccc1=O | 13.6 µM and 15.7 µM | > 100 µM | 2.98 µM and 3.9 µM | > 50.1 | 63 µM and 58.7 µM |  |  |  |  |  |
| CCC(C)CNc1ccc2oc(COC)nc2c1 (stereo unspecified) | 36.7 µM and 47.3 µM | > 100 µM | 11.1 µM and 14.1 µM | > 50.1 |  | 49.1 | 34.4 |  |  |  |
| CNc1nc2c(s1)C(c1c(F)cccc1Cl)CC(=O)N2 (stereo unspecified) | 46.5 µM and 15.4 µM |  | 7.84 µM and 5.67 µM | > 50.1 | 20.4 µM and 19.2 µM |  |  | 20.4 µM and 24.2 µM |  |  |
| Cn1cc(NS(=O)(=O)c2ccc(OC(F)(F)F)cc2)ccc1=O | 98.4 µM and 74.5 µM |  | 25.5 µM and 16.7 µM | > 50.1 |  |  |  |  | 5.067 and 4.969 |  |
| COc1cccc(C2CC(=O)Nc3nc(N)sc32)c1OC (stereo unspecified) | 2.74 µM and 8.57 µM | 45.3 µM and 45 µM | 1.21 µM and 1.37 µM | > 50.1 | 3.98 µM and 3.84 µM | 42.2 | 44.8 | 9.52 µM and 9.23 µM |  |  |
| COCc1nc2cc(NCc3ccncc3)ccc2o1 | 11.6 µM and 26.4 µM | 50.3 µM and 60.4 µM | 4.22 µM and 3.13 µM |  |  |  |  |  |  | > 50.1 |
| CCCN(C(=O)c1ccccn1)c1nc2c(s1)CCc1c-2cnn1C | 27.3 µM and 35.3 µM | > 100 µM | 18.7 µM and 14.4 µM | > 50.1 |  |  |  |  |  |  |
| Cn1nc2c(cc1=O)CN(Cc1nnc(C3CC3)o1)CC2 | 77.5 µM and > 100 µM | > 100 µM | 17.5 µM and 14.6 µM | > 50.1 |  |  |  |  |  | > 30.2 |
